Reference: US5118682A, “p-Hydroxy phenone derivatives and the use thereof” (BASF Aktiengesellschaft, priority 1988, dated 1992)
Where a name gives a salt, the structure may show the parent alone.

Legend:
QT interval = assay: class III antiarrhythmic action in guinea-pigs after intravenous administration (increase in QT interval, ECG); format: in vivo, guinea-pigs (Pirbright white); settings: i.v.; for ED20: Cavia porcellus, iv, read-out: Increase in QT interval ED 20%; for Rel. action ED20 (D-sotalol)/ED20 (example): guinea-pigs, potency relative to D-sotalol = 1
Description: The experimental animals are male and female Pirbright white guinea-pigs weighing from 300 to 500 g. They are anaesthetized with 1.5 g/kg urethane i.p. The substances are administered intravenously. The ECG conduction times and the heart rate are measured from a recording from extremity lead II. […] The criterion of a class III action is an increase in the QT interval compared with the values before administration of the substance. An increase in PQ and a large decrease in the heart rate serve as exclusion criteria.

[1] = tested on: arrhythmias which are otherwise resistant to therapy, especially reentry arrhythmias; settings: Circulation 68 (1983); Am. Heart J. 109 (1985); J. Clin. Pharmacol. 27 (1987); cited from earlier work
[2] = anaesthetized guinea-pigs (urethane 1.5 g/kg i.p.), ECG extremity lead II, 4 to 6 animals per dose, dose for 20% increase in QT interval, calculated from log dose-response

Compound	ED20 (QT interval; [2]) [mg/kg]	Rel. action ED20 (D-sotalol)/ED20 (example) (QT interval)	Increase in QT interval ED 20% (QT interval; [2]) [mg/kg]	therapeutic advantage of class III antiarrhythmics reported in the literature [1]
Cc1ccccc1/C=C/C(=O)c1cc(C)c(OCCN2CCCC2)c(C)c1 [Example 1, 3',5'-Dimethyl-4,-(2-(1-pyrrolidinyl)ethoxy)-2-methylchalcone tosylate]	0.74	4.9		
COc1ccc(/C=C/C(=O)c2cc(C)c(OCCN3CCCCC3)c(C)c2)c(C)c1.O=C(O)/C=C/C(=O)O [Example 20, 3',5'-Dimethyl-4'-(2-(1-piperidinyl)ethoxy)-4-methoxy-2-methylchalcone fumarate]	0.73	4.9		
CCN(CC)CCOc1c(C)cc(C(=O)Cc2ccc(OC)cc2)cc1C [Example 10, 4'-(2-Diethylaminoethoxy)-3',5'-dimethyl-4-methoxydeoxybenzoin]	1.31	2.7		
3',4'-Dimethyl-4'-(2-(1-pyrrolidinyl)ethoxy)-4-methoxychalcone fumarate [Example 24]		3.8	0.95	
CCc1ccccc1C=CC(=O)c1cc(C)c(OCCN2CCCC2)c(C)c1 [Example 12, 3',5'-Dimethyl-4,-(2-(1-pyrrolidinyl)ethoxy)-2-ethylchalcone fumarate]	0.74	4.9		
Cc1ccccc1CCC(=O)c1cc(C)c(OCCN2CCCC2)c(C)c1 [Example 25, 3,5-Dimethyl-4-(2-(1-pyrrolidinyl)ethoxy)-3'-(2-tolyl)-propiophenone fumarate]	0.79	4.6		
CCN(CC)CCOc1c(C)cc(C(=O)/C=C/c2ccccc2C)cc1C.O=C(O)/C=C/C(=O)O [Example 3, 4'-(2-Diethylaminoethoxy)-3',5'-dimethyl-2-methylchalcone fumarate]	0.65	5.5		
COc1ccccc1/C=C/C(=O)c1cc(C)c(OCCN2CCCC2)c(C)c1.O=C(O)/C=C/C(=O)O [Example 13, 3',5'-Dimethyl-4'-(2-(1-pyrrolidinyl)ethoxy)-2-methoxychalcone fumarate]	0.67	5.4		
CCc1ccccc1CCC(=O)c1cc(C)c(OCCN2CCCCC2)c(C)c1 [Example 32, 3,5-Dimethyl-3'-(2-ethylphenyl)-4-(2-(1-piperidinyl)ethoxy)propiophenone f umarate]	1.62	2.2		
COc1ccccc1/C=C/C(=O)c1cc(C)c(OCCN2CCCCC2)c(C)c1.Cl [Example 17, 3',5'-Dimethyl-4'-(2-(1-piperidinyl)ethoxy)-2-methoxychalcone hydrochloride]	1.69	2.1		
COc1ccccc1CCC(=O)c1cc(C)c(OCCN2CCCCC2)c(C)c1 [Example 27, 3,5-Dimethyl-3'-(2-methoxyphenyl)-4-(2-(piperidinyl)ethoxy)propiophenone fumarate]	1.2	3		
Cc1ccccc1/C=C/C(=O)c1cc(C)c(OCCN2CCCCC2)c(C)c1.O=C(O)/C=C/C(=O)O [Example 2, 3',5'-Dimethyl-4'-(2-(1-piperidinyl)ethoxy)-2-methylchalcone fumarate]	0.76	4.7		
CC(C)NCC(O)c1ccc(NS(C)(=O)=O)cc1 (single isomer, unassigned) [D-sotalol, reference compound]	3.6			acting against arrhythmias which are otherwise resistant to therapy
Cc1ccccc1/C=C/C(=O)c1cc(C)c(OCCCN2CCCC2)c(C)c1.O=C(O)/C=C/C(=O)O [Example 4, 3',5'-Dimethyl-4'-(3-(1-pyrrolidinyl)propoxy)-2-methylchalcon fumarate]	0.89	4.0		
CCc1ccccc1C=CC(=O)c1cc(C)c(OCCN2CCOCC2)c(C)c1 [Example 18, 3',5'-Dimethyl-4'-(2-(1-morpholinyl)ethoxy)-2-ethylchalcone hydrochloride]	1.5	2.4		
COc1ccc(C=CC(=O)c2cc(C)c(OCCN3CCCC3)c(C)c2)c(C)c1 [Example 15, 3',5'-Dimethyl-4'-(2-(1-pyrrolidinyl)ethoxy)-4-methoxy-2-methylchalconeoxalate]	1.5	2.4		
CCCCc1oc2ccccc2c1C(=O)c1cc(I)c(OCCN(CC)CC)c(I)c1 [amiodarone]				acting against arrhythmias which are otherwise resistant to therapy
